Source: PubChem BioAssay (NCI)
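48-hour exposure; five concentrations; linearly interpolated endpoints. TGI marks complete inhibition of growth.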

Assays:
Assay in all cases: NCI tumour cell line growth inhibition, 48 h
[1] = system: A549 NSCLC
[2] = system: DMS 114 small cell lung
[3] = system: HCC-2998 colon
[4] = system: HOP-62 NSCLC
[5] = system: IGROV1 ovarian
[6] = system: M14 melanoma
[7] = system: MOLT-4 leukemia
[8] = system: OVCAR-3 ovarian
[9] = system: OVCAR-5 ovarian
[10] = system: RXF 393 renal
[11] = system: SF-295 CNS
[12] = system: SF-539 CNS
[13] = system: SK-MEL-28 melanoma
[14] = system: SK-OV-3 ovarian
[15] = system: SR leukemia
[16] = system: SNB-75 CNS
[17] = system: HS 578T breast
[18] = system: MDA-MB-231 breast
[19] = system: MDA-N
[20] = system: T-47D breast

Row | SMILES | TGI [1] [µM] | TGI [2] [µM] | TGI [3] [µM] | TGI [4] [µM] | TGI [5] [µM] | TGI [6] [µM] | TGI [7] [µM] | TGI [8] [µM] | TGI [9] [µM] | TGI [10] [µM] | TGI [11] [µM] | TGI [12] [µM] | TGI [13] [µM] | TGI [14] [µM] | TGI [15] [µM] | TGI [16] [µM] | TGI [17] [µM] | TGI [18] [µM] | TGI [19] [µM] | TGI [20] [µM]
1 | C/C(CC(=O)Nc1ccc(Cl)c(Cl)c1)=N/NC(=O)C[n+]1ccccc1 | > 100 | 66.1 | > 100 | > 100 | > 100 | > 100 | > 100 | > 100 | > 100 | > 100 | > 100 | > 100 | > 100 | > 100 | 51.2 |  |  |  |  | 
2 | COC(=O)c1ccc(OCc2ccc3nc(OC)c(OC)nc3c2)cc1 | > 100 | > 100 | > 100 | > 100 |  | > 100 |  | > 100 | > 100 |  | > 100 | > 100 | > 100 |  | > 100 | > 100 |  |  |  | 
3 | COc1ccc(N2C(=O)C3c4[nH]c5ccc(OC)cc5c4C4CCC(C(C)(C)C)CC4C3C2=O)cc1 (stereo not drawn) | > 100 | > 100 | > 100 | 52.5 | > 100 | > 100 | > 100 | > 100 | > 100 | 58.1 | 32.8 | 55.1 | > 100 | 80 | > 100 | 35.6 |  |  |  | 
4 | O=C(O)/C=C/n1c2ccccc2c(=O)c2ccccc21 | > 100 | > 100 | > 100 | > 100 | > 100 | > 100 | > 100 | > 100 | > 100 | > 100 | > 100 | > 100 | > 100 |  | > 100 |  |  |  |  | 
5 | CC(=O)c1cccc(NC(=O)/C(=N\NC(C)(C)C)c2c(O)c3ccccc3oc2=O)c1 | > 100 | > 100 | > 100 | > 100 | > 100 | > 100 | > 100 | > 100 |  | > 100 | > 100 | > 100 | > 100 | > 100 | > 100 | > 100 |  |  |  | 
6 | CC1(C)COC(C23C4C5C2C2C3C4C52I)=N1 (stereo not drawn) | > 100 | > 100 | > 100 | > 100 | > 100 | > 100 | > 100 | > 100 | > 100 | > 100 | > 100 | > 100 | > 100 | > 100 |  |  |  |  |  | 
7 | CCCN(CCCCC(NC(C)=O)C(=O)NCc1ccccc1)C(=O)N(C)N=O (stereo not drawn) | > 100 | > 100 | > 100 | > 100 | > 100 | > 100 | > 100 | > 100 | > 100 | > 100 | > 100 | > 100 | > 100 | > 100 |  | > 100 |  |  |  | 
8 | COC1=C2CC(C)CC(OC)[C@@H](OC(=O)CCN)[C@H](C)/C=C(\C)C(OC(N)=O)C(OC)/C=C\C=C(/C)C(=O)NC(=CC1=O)C2=O (stereo partly drawn) | 29.2 |  | 5.69 | 15.4 | 3.25 | 19.5 | 2.53 | 8.19 | 21.1 | 17.5 | 30.1 | 14.9 | 5.22 | 25.4 | 8.71 | 35.1 | 16.9 | 7.47 | 12.7 | 1.68
9 | CCOC(=O)c1cc2c(ccc3cc(C(=O)OCC)[nH]c32)[nH]1 | > 100 |  | > 100 | 59 | > 100 | > 100 | > 100 | > 100 | > 100 | 66.8 | > 100 | 29.6 | 25.7 | > 100 | 45.3 | 41.8 | 58.6 | 28.7 | > 100 | > 100
10 | C=CCCC(OCOCCOC)c1cc(C)c(O[Si](C)(C)C(C)(C)C)c(C)c1 (stereo not drawn) | 38.5 | 28 | 27.5 | 35.2 | 90.5 | > 100 | 19.4 | 27.7 | 32.4 | 27.4 | 31.8 | 38.6 | 64.7 | 55.1 |  | 35.6 |  |  |  | 
11 | COc1cc2cc(C(=O)N3CC(CCl)c4c3cc([N+](=O)[O-])c3ccccc43)[nH]c2c(OC)c1OC (stereo not drawn) | > 100 |  | > 100 | > 100 | > 100 | > 100 | > 100 | > 100 | > 100 | > 100 | 97.7 | > 100 | > 100 | > 100 | 19.1 | > 100 | > 100 | > 100 | > 100 | > 100
12 | COc1ccc2c(c1)c(=O)c1ccccc1n2/C=C/C(=O)O | > 100 | > 100 | > 100 | > 100 | > 100 | > 100 | > 100 | > 100 | > 100 | > 100 | > 100 | > 100 | > 100 | > 100 | > 57.4 | > 100 |  |  |  | 
13 | N#Cc1c(-c2ccc(Cl)cc2)cc(-c2ccc(Nc3ccnc4cc(C(F)(F)F)ccc34)cc2)[nH]c1=O | > 100 |  | > 100 | > 57.7 | > 100 | 13.9 | 20.7 | 20.6 | > 65 | 22.6 | > 87.1 | 18.5 | > 34.6 | 73.1 | 8.93 | > 50 | > 100 | 65.8 | 11.9 | 14.8
14 | COc1ccc(N2C(=O)C3c4[nH]c5ccccc5c4C4CCCCCCCCCCC4C3C2=O)cc1 (stereo not drawn) | 23.2 | > 47.5 | > 100 | > 55 | > 48.7 | 27.1 | 37.4 | 26.4 | > 64.6 |  | 39.4 | > 33.2 | 29.7 | > 57.5 | > 20.3 | 55 |  |  |  | 
15 | COc1cccc2c1CCc1ccccc1CC2=O | > 100 | > 100 | > 100 |  | > 100 | > 100 | > 100 | > 100 | > 100 | > 100 | > 100 | > 100 | > 100 | > 100 | > 100 | > 100 |  |  |  | 
16 | Cc1ccc(S(=O)(=O)N2CC3OC(C)(C)OC3C2CO)cc1 (stereo not drawn) | > 100 |  | > 100 | > 100 | > 100 | > 100 | > 100 | > 100 | > 100 | > 100 | > 100 | > 100 | > 100 | > 100 | > 100 | > 100 | > 100 | > 100 | > 100 | > 100
17 | COc1cc(C2=NN(C)C(c3ccc([N+](=O)[O-])o3)C2)cc(OC)c1OC (stereo not drawn) | > 100 | > 100 | > 100 | > 100 | > 100 | > 100 | > 100 |  | > 100 |  | > 100 | > 100 | > 100 | > 100 | 38.6 | > 100 |  |  |  | 
18 | COc1c(Cl)c2c(c(OC)c1OC)-c1ccc(OC)c(=O)c(Cl)c1C(NC(C)=O)CC2 (stereo not drawn) | > 100 | 1.11 | 0.453 | > 27.2 |  | 4.61 | > 100 | 0.378 | > 100 |  | 0.49 | 0.444 | > 100 |  | > 100 | 1.1 |  |  |  | 
19 | CN(NC(=O)c1ccco1)C1=NCCN1 | > 100 |  | > 100 | > 100 | > 100 | > 100 | > 100 | > 100 | > 100 | > 100 | > 100 | > 100 | > 100 | > 100 | > 100 | > 100 | > 100 | > 100 | > 100 | > 100
20 | O=S1(=O)OCCOS(=O)(=O)C1I | > 100 | > 100 | > 100 | > 100 | > 100 | > 100 | > 100 | > 100 |  |  | > 100 | > 100 | > 100 | > 100 | > 100 | > 100 |  |  |  | 
21 | CC1(c2ccc(F)cc2)CC(c2ccc(F)cc2)=C(C#N)C(=C(C#N)C#N)N1 (stereo not drawn) | 41.7 |  | 28.2 | 38.6 | 32.3 | 35.6 | 34.8 | 19.4 | 38.5 | 28.3 | 37.1 | 78.4 | 47.3 | 37.3 | 42.2 | 34.2 | 64.1 | 43.9 | 34.3 | 31.7
22 | CC(C)(C)OC(=O)N(O)[C@@H]1C=C[C@H](n2cnc3c(N)ncnc32)C1 | > 100 |  | > 100 | > 100 | > 100 | > 100 | > 100 | > 100 | > 100 | > 100 | > 100 | > 100 | > 100 | > 100 | > 100 | > 100 | > 100 | > 100 | > 100 | > 100
23 | O=C1CCCCC1CN1CCCC1 (stereo not drawn) | > 100 | > 100 | > 100 | > 100 | > 100 | > 100 | > 100 | > 100 | > 100 |  | > 100 |  | > 100 | > 100 | > 100 | > 100 |  |  |  | 
24 | CC1=NN(c2ccccc2)C(=O)C1=C1SCCS1 | > 100 | > 67.7 | > 100 | > 100 | > 100 | > 100 | > 100 | > 100 | > 100 | > 65.4 | > 100 | > 100 | > 100 | > 100 | > 54.4 | > 100 |  |  |  | 
25 | CN(C)c1ccc(-c2cc(=O)c3cc4c(cc3[nH]2)OCO4)cc1 | > 100 | > 100 | > 100 | > 100 | > 100 | > 100 | > 100 | > 100 |  | > 100 | > 100 | > 100 | > 100 |  | > 100 | > 100 |  |  |  | 
26 | COC(OC)C1OC(CO)C(n2cc(C)c(=O)[nH]c2=O)C1O (stereo not drawn) | > 100 |  | > 100 | > 100 | > 100 | > 100 | > 100 | > 100 | > 100 | > 100 | > 100 | > 100 | > 100 | > 100 | > 100 | > 100 | > 100 | > 100 | > 100 | > 100
